Values quoted from earlier work, collected in patent US20170094967A1, “OIL PALM FRUIT APPLICATION METHODS” (Valent BioSciences Corporation, priority 2015, published 2017).

System: oil palms
Conditions: applied before harvest directly to the fruit

## NCCO/C=C/[C@H](N)C(=O)O (stereo in doubt) [AVG, [S]-trans-2-amino-4-(2-aminoethoxy)-3-butenoic acid]
  oil yield of oil palm fruit: increases the oil yield

## CC1=CC1 [1-MCP, 1-methylcyclopropene]
  oil yield of oil palm fruit: increases the oil yield
